Data published in ChEMBL document CHEMBL4052759, “Discovery of DS79182026: A potent orally active hepcidin production inhibitor” (Bioorg Med Chem Lett, 2017).
Values belong to the molecule of their own block, whether it stands above or below them.

Experiments:
[1] = Oral bioavailability in C57BL/6J mouse at 30 mg/kg by LC-MS/MS analysis; format: ADME, organism-based; details: in vivo
[2] = target: Serine/threonine-protein kinase pim-2 (Homo sapiens) (UniProt Q9P1W9); assay: Inhibition of PIM2 (unknown origin) at 0.078 uM relative to control
[3] = target: Mitogen-activated protein kinase 14 (Homo sapiens) (UniProt Q16539); assay: Inhibition of p38a (unknown origin) at 0.078 uM relative to control
[4] = system: Fibroblast growth factor receptor 1 (Homo sapiens), P11362 [V561M]; assay: Inhibition of FGFR1 V561M mutant (unknown origin) at 0.45 uM relative to control
[5] = target: T1, Aurora kinase A (Homo sapiens) (UniProt O14965); assay: Inhibition of AurA (unknown origin) at 0.45 uM relative to control
T1 sequence (whole entry): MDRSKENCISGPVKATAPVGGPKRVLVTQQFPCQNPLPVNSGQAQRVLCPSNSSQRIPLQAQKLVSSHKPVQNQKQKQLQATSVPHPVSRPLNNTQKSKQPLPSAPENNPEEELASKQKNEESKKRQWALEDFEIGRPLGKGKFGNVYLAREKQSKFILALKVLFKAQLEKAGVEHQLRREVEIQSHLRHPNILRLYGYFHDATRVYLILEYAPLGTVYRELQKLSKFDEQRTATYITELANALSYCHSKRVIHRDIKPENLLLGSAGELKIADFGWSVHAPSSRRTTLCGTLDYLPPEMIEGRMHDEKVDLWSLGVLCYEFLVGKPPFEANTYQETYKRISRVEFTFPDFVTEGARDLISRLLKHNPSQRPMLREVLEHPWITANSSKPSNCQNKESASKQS

[6] = target: Calcium/calmodulin-dependent protein kinase type 1 (Homo sapiens) (UniProt Q14012); assay: Inhibition of CaMK1a (unknown origin) at 0.45 uM relative to control
[7] = target: Mitogen-activated protein kinase 1 (Homo sapiens) (UniProt P28482); assay: Inhibition of Erk2 (unknown origin) at 0.45 uM relative to control
[8] = target: Fibroblast growth factor receptor 4 (Homo sapiens) (UniProt P22455); assay: Inhibition of FGFR4 (unknown origin) at 0.45 uM relative to control
[9] = target: Vascular endothelial growth factor receptor 1 (Homo sapiens) (UniProt P17948); assay: Inhibition of FLT1 (unknown origin) at 0.45 uM relative to control
[10] = target: Insulin receptor (Homo sapiens) (UniProt P06213); assay: Inhibition of INSR (unknown origin) at 0.45 uM relative to control
[11] = target: Macrophage-stimulating protein receptor (Homo sapiens) (UniProt Q04912); assay: Inhibition of MST1R (unknown origin) at 0.45 uM relative to control
[12] = target: Platelet-derived growth factor receptor alpha (Homo sapiens) (UniProt P16234); assay: Inhibition of PDGFR alpha (unknown origin) at 0.45 uM relative to control
[13] = target: Serine/threonine-protein kinase DCLK1 (Homo sapiens) (UniProt O15075); assay: Inhibition of DCAMKL1 (unknown origin) at 0.45 uM relative to control
[14] = target: Serine/threonine-protein kinase MARK2 (Homo sapiens) (UniProt Q7KZI7); assay: Inhibition of MARK2 (unknown origin) at 0.45 uM relative to control
[15] = target: MAP kinase-interacting serine/threonine-protein kinase 1 (Homo sapiens) (UniProt Q9BUB5); assay: Inhibition of MNK1 (unknown origin) at 0.45 uM relative to control
[16] = target: Serine/threonine-protein kinase pim-2 (Homo sapiens) (UniProt Q9P1W9); assay: Inhibition of PIM2 (unknown origin) at 0.45 uM relative to control
[17] = system: Tyrosine-protein kinase ABL1 (Homo sapiens), P00519 [G250E]; assay: Inhibition of ABL1 G250E mutant (unknown origin) at 0.45 uM relative to control
[18] = target: Tyrosine-protein kinase SYK (Homo sapiens) (UniProt P43405); assay: Inhibition of SYK (unknown origin) at 0.45 uM relative to control
[19] = target: Tyrosine-protein kinase Tec (Homo sapiens) (UniProt P42680); assay: Inhibition of TEC (unknown origin) at 0.45 uM relative to control
[20] = target: Ribosomal protein S6 kinase alpha-3 (Homo sapiens) (UniProt P51812); assay: Inhibition of RSK2 (unknown origin) at 0.49 uM relative to control
[21] = target: SRSF protein kinase 3 (Homo sapiens) (UniProt Q9UPE1); assay: Inhibition of MSSK1 (unknown origin) at 0.49 uM relative to control
[22] = target: Receptor-type tyrosine-protein kinase FLT3 (Homo sapiens) (UniProt P36888); assay: Inhibition of FLT3 (unknown origin) at 0.49 uM relative to control
[23] = target: Serine/threonine-protein kinase MARK1 (Homo sapiens) (UniProt Q9P0L2); assay: Inhibition of MARK1 (unknown origin) at 0.49 uM relative to control
[24] = target: PAS domain-containing serine/threonine-protein kinase (Homo sapiens) (UniProt Q96RG2); assay: Inhibition of PASK (unknown origin) at 0.49 uM relative to control
[25] = target: Mitogen-activated protein kinase kinase kinase kinase 4 (Homo sapiens) (UniProt O95819); assay: Inhibition of HGK (unknown origin) at 0.49 uM relative to control
[26] = target: Serine/threonine-protein kinase PAK 3 (Homo sapiens) (UniProt O75914); assay: Inhibition of PAK3 (unknown origin) at 0.49 uM relative to control

Chain of Serine/threonine-protein kinase pim-2 (Homo sapiens) (Q9P1W9 whole entry, looked up): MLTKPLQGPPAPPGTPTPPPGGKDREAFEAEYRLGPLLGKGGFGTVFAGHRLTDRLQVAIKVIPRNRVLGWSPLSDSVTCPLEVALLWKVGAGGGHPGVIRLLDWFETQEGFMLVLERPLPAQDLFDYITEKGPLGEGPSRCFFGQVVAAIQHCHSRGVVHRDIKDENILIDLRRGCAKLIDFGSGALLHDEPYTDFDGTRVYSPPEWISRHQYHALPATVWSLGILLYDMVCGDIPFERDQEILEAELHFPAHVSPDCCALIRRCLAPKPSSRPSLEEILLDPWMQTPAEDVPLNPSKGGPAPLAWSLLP
Chain of Serine/threonine-protein kinase DCLK1 (Homo sapiens) (O15075 whole entry): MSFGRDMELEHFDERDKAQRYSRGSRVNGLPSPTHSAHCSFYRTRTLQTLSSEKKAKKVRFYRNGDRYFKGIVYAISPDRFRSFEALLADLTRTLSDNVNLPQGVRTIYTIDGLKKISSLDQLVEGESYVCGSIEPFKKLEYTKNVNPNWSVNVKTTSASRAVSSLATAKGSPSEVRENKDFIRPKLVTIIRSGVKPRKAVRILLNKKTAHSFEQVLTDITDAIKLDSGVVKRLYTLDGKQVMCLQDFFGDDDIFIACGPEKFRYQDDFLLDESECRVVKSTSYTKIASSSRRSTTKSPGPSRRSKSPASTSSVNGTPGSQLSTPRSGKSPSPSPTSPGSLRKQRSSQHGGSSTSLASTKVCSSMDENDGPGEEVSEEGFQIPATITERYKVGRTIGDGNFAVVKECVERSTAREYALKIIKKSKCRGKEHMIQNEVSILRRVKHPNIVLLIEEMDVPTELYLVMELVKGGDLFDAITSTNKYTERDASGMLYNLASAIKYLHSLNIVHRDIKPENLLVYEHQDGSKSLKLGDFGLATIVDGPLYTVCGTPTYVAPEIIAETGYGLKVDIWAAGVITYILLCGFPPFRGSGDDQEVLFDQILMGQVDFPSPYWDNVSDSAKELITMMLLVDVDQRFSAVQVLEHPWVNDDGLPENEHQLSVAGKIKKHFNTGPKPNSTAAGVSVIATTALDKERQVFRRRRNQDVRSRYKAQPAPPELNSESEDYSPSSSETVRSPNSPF
Chain of Macrophage-stimulating protein receptor (Homo sapiens) (Q04912 25-304 limits assumed): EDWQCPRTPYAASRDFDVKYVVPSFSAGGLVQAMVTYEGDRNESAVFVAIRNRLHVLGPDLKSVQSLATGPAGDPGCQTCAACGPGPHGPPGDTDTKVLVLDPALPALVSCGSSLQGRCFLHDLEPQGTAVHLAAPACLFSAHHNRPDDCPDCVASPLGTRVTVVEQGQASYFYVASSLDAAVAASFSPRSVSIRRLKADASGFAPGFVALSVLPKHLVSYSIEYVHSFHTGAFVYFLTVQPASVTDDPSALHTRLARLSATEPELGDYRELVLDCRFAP
Chain of Macrophage-stimulating protein receptor (Homo sapiens) (Q04912 310-1400 limits assumed): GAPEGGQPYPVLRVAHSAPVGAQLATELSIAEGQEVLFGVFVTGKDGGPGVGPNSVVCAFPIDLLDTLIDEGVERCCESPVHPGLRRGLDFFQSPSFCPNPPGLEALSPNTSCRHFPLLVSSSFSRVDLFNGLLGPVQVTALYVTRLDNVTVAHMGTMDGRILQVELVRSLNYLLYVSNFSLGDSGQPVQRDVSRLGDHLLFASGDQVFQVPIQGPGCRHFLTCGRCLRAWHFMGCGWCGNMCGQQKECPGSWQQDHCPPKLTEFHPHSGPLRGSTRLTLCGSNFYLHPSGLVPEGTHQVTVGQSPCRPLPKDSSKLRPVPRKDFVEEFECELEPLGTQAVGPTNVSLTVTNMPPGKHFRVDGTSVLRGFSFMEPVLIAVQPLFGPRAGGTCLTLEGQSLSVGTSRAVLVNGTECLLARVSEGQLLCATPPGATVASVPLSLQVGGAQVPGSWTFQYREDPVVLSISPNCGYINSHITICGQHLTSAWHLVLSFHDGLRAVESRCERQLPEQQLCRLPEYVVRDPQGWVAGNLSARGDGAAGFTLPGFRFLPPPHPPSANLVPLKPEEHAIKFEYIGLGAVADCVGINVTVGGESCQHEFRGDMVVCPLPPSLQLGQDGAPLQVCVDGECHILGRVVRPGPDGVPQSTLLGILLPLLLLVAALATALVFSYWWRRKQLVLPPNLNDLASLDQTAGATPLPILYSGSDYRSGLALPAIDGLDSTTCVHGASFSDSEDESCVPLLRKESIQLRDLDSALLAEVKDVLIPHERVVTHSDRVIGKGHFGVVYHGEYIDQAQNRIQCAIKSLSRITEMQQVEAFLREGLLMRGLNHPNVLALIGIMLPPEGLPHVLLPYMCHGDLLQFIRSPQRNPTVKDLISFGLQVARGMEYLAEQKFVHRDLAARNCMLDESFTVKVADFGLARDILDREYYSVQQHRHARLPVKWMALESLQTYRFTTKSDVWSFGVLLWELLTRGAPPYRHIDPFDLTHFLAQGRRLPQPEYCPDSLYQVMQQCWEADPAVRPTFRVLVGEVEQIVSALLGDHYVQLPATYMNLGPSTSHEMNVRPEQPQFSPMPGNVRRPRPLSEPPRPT
Chain of Mitogen-activated protein kinase 14 (Homo sapiens) (Q16539 whole entry): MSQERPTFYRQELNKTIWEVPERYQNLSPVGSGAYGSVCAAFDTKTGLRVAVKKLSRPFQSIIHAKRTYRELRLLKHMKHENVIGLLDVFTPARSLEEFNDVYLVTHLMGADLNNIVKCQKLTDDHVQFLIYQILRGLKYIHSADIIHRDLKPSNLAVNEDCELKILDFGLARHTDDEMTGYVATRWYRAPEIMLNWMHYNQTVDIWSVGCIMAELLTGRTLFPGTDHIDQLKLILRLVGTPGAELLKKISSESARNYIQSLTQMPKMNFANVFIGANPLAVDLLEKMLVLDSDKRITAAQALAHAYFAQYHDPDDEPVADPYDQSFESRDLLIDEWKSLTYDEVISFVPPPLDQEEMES
Chain of Fibroblast growth factor receptor 4 (Homo sapiens) (P22455 22-802 limits assumed): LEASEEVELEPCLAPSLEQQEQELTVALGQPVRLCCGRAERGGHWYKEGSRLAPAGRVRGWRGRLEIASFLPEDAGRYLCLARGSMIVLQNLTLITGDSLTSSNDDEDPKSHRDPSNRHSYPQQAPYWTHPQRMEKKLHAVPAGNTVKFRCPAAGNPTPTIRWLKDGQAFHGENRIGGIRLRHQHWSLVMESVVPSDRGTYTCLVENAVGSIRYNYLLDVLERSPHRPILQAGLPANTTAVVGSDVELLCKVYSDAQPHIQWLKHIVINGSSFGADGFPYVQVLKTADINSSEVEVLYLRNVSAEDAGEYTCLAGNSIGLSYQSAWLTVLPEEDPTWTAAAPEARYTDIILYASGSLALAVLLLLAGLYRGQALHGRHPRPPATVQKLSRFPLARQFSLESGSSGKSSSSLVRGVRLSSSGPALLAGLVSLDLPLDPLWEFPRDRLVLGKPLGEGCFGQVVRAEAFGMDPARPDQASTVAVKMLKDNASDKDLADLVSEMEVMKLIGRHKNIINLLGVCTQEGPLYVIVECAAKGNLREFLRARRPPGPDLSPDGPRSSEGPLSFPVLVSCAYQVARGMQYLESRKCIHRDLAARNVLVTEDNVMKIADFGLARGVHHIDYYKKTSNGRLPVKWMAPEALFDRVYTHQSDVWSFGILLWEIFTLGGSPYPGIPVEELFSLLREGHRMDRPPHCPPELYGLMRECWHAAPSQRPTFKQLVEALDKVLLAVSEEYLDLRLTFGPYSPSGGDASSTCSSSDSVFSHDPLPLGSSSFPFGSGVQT
Chain of Serine/threonine-protein kinase MARK1 (Homo sapiens) (Q9P0L2 whole entry, looked up, the tested form may be a part): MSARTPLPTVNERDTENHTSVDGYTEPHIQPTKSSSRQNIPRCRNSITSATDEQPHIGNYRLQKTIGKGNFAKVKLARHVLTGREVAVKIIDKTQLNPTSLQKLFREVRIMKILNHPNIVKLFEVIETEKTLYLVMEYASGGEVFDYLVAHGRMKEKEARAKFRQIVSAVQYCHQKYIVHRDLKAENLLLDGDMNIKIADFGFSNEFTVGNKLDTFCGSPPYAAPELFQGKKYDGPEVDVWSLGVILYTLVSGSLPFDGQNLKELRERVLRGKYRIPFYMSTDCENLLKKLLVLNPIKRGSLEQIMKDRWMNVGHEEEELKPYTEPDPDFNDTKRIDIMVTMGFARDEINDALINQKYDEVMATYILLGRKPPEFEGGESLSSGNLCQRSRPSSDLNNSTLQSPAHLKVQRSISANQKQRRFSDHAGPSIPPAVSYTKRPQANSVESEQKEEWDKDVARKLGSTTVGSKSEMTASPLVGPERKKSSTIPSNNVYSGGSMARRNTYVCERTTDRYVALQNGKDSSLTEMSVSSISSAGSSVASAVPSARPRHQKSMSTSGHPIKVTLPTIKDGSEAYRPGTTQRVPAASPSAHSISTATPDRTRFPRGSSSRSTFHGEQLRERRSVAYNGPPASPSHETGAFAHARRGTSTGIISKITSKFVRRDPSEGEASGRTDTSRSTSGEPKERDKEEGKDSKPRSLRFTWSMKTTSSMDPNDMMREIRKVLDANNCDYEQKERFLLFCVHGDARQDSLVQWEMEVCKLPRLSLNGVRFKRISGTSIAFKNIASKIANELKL
Chain of Calcium/calmodulin-dependent protein kinase type 1 (Homo sapiens) (Q14012 whole entry, looked up): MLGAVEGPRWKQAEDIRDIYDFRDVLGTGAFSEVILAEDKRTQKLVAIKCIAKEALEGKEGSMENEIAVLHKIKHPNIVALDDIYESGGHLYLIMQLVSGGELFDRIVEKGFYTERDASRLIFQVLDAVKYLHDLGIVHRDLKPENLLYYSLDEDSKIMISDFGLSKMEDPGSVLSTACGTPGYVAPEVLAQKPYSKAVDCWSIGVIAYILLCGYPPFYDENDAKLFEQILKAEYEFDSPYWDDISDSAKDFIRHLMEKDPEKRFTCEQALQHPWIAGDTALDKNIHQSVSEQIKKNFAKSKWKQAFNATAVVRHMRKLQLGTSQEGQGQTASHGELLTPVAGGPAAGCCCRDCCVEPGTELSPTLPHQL

bioavailability [1]: 100%
inhibition [2]: 1.7%
inhibition [3]: 5.7%
Structure (SMILES): COC(=O)Nc1noc2cc(-c3c(-c4ccccn4)n[nH]c3C)ccc12

inhibition [4]: 23.7%
inhibition [5]: 7%
inhibition [6]: -0.7%
inhibition [7]: -0.3%
inhibition [8]: 0.7%
inhibition [9]: 12.7%
inhibition [10]: 3%
inhibition [11]: -1%
inhibition [12]: 11.7%
inhibition [13]: 0%
inhibition [14]: 35%
inhibition [15]: 6.7%
inhibition [16]: -1.7%
inhibition [17]: 68%
inhibition [18]: 2.7%
inhibition [19]: 7%
Structure (SMILES): Cc1n[nH]c(C)c1-c1ccc2c(NC(=O)c3ccc(N4CCN(C)CC4)cc3)n[nH]c2c1

inhibition [20]: -2%
inhibition [21]: 4%
inhibition [22]: 3.7%
inhibition [23]: 3.3%
inhibition [24]: 1.3%
inhibition [25]: 4%
inhibition [26]: -4.3%
Structure (SMILES): Cc1[nH]nc(C2CC2)c1-c1ccc2c(NC(=O)C3CC3)noc2c1
